Assay results as given in ChEMBL document CHEMBL1153648, “1,4-Benzodiazepin-2-one derived neurokinin-1 receptor antagonists” (Bioorg Med Chem Lett, 1997).

What follows are compounds tested against T1, Substance-P receptor (Homo sapiens, UniProt P25103) (assay: Tested for affinity against NK-1(Neurokinin-1) receptor expressed as pKi).
T1 sequence (P25103 whole entry): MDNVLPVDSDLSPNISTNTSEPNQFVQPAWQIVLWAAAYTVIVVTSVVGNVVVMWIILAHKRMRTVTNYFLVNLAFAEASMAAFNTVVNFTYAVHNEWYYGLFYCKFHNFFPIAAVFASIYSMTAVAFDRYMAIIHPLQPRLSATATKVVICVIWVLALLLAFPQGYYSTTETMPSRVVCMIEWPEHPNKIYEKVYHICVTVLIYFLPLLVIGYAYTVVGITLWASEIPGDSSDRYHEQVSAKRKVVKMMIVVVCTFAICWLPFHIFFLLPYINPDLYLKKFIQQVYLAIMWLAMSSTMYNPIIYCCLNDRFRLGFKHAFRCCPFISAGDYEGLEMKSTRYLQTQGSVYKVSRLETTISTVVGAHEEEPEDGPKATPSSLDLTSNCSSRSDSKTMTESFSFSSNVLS

| SMILES | Ki [nM] |
| --- | --- |
| CN(Cc1cc(C(F)(F)F)cc(C(F)(F)F)c1)C(=O)N1CC(=O)Nc2ccccc2C1c1ccccc1 (stereo not given) | 10 |
| CC1c2ccccc2NCCN1C(=O)N(C)Cc1cc(C(F)(F)F)cc(C(F)(F)F)c1 (stereo not given) | 39.8 |
| CC1c2ccccc2N(C)C(=O)CN1C(=O)N(C)Cc1cc(C(F)(F)F)cc(C(F)(F)F)c1 (stereo not given) | 1000 |
| CN(Cc1cc(C(F)(F)F)cc(C(F)(F)F)c1)C(=O)N1CC(=O)Nc2ccccc2C1CN1CCOCC1 (stereo not given) | 794 |
| CC1c2ccccc2NC(=O)CN1C(=O)N(C)Cc1cc(C(F)(F)F)cc(C(F)(F)F)c1 (stereo not given) | 31.6 |
| O=C1CN(C(=O)NCc2cc(C(F)(F)F)cc(C(F)(F)F)c2)C(c2ccccc2)c2ccccc2N1 (stereo not given) | 631 |
| COC(=O)C1c2ccccc2NC(=O)CN1C(=O)N(C)Cc1cc(C(F)(F)F)cc(C(F)(F)F)c1 (stereo not given) | 316 |
| CN(Cc1ccccc1)C(=O)N1CC(=O)Nc2ccccc2C1c1ccccc1 (stereo not given) | 1000 |

The compounds below were run against T2, Cholecystokinin receptor type A (Homo sapiens, UniProt P32238) (assay: Concentration required for 50% inhibition of cholecystokinin A(CCK A)).
T2 sequence (P32238 whole entry): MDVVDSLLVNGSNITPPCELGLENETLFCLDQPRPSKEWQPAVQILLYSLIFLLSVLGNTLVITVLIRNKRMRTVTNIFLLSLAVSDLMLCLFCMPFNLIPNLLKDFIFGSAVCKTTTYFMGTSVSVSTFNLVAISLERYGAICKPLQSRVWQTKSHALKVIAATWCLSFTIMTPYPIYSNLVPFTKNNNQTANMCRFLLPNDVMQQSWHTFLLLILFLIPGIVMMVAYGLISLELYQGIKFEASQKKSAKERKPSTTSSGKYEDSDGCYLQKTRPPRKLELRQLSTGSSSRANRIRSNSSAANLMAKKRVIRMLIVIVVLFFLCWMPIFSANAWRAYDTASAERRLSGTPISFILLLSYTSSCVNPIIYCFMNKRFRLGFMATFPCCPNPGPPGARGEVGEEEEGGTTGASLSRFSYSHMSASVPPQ

| SMILES | IC50 [nM] |
| --- | --- |
| CCCCCN(CCCCC)C(=O)C(Cc1c[nH]c2ccccc12)NC(=O)c1ccc(Cl)c(Cl)c1 (stereo not given) | 190 |

The compounds below were run against T1, Substance-P receptor (assay: Concentration required for 50% inhibition of neurokinin-1 receptor).

| SMILES | IC50 [nM] |
| --- | --- |
| CC(=O)NC(Cc1c[nH]c2ccccc12)C(=O)N(C)Cc1ccccc1 (stereo not given) | 750 |
